Activity calls are given as the source filed them.

The values that follow come from ChEMBL document CHEMBL1201862, “PubChem BioAssay data set” (2004).

Test [1] concerns the target Eukaryotic translation initiation factor 4E (Mus musculus, UniProt P63073). The experiment in a line: eIF4E–eIF4G protein interaction inhibitors, dose response, biochemical, TR-FRET (AID 855).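 Note: potency for disrupting eIF4E binding to eIF4GI seen as loss of FRET.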 It counts as functional. A general note: TR-FRET usually uses a lanthanide donor and a delayed reading to cut background.
The nature of test [2]: inhibitors of Bluetongue virus cytopathic effect, confirmation, arbovirus, BSR cells (AID 1250).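 Note: protection from viral cytopathic effect measured as cell viability by ATP luminescence.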 It counts as functional. Background: Damage to the host cells serves as the signal in cytopathic effect assays.
The target in test [3] is Beta-galactosidase (Escherichia coli, UniProt Q8VNN2). The experiment in a line: beta-galactosidase enzyme inhibitors and activators, dose response, artefact control for CCR6 antagonist project, biochemical, E. coli enzyme, set 3 (AID 504712). Format: functional.
Test [4] has as its system Streptococcus sp. 'group A'. The experiment in a line: growth inhibition of control SK(-) GAS strain, dose response, counter-screen for streptokinase expression inhibitor project, luminescence, kanamycin, BacTiterGlo, confirmation (AID 1900). Format: functional, organism-based. (In general: A counterscreen serves to expose hits that act by an unwanted route or on another target.)

Test [5] in a line: A cytotoxicity screen of small molecule inhibitors of the PhoP region in Salmonella typhi identified in the primary screen. [Related pubchem assays: 1850, 1864, 1985 ]. Format: functional.
Test [6] concerns Streptococcus. The experiment in a line: Group A Streptococcus viability loss, dose response, counter-screen for streptokinase expression inhibitor project, luminescence, BacTiterGlo (AID 1915).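 Note: potency for reduction of bacterial viability or growth.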 Format: functional, organism-based.
Test [7] deals with Eukaryotic translation initiation factor 4H (Homo sapiens, UniProt Q15056). The experiment in a line: human eIF4H binding inhibitors, primary screen, translation initiation inhibitor project, biochemical, uHTS, fluorescence polarization (AID 2012).
Test [8] deals with T1, Carboxy-terminal domain RNA polymerase II polypeptide A small phosphatase 1 (Homo sapiens, UniProt Q9GZU7).
T1 sequence (Q9GZU7 whole entry): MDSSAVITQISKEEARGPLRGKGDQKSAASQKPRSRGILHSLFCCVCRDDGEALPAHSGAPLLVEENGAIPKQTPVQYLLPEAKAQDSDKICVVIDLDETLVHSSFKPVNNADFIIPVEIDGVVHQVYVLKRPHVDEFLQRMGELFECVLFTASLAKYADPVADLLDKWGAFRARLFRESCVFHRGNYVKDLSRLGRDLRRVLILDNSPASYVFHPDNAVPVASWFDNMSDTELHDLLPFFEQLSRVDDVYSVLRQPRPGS
The experiment in a line: inhibitors of CTDSP1, concentration-response testing, biochemical assay, absorbance-based, actives from ultra-high-throughput screening (AID 540297). It counts as functional.

The target of test [9] is Polyadenylate-binding protein 1 (Homo sapiens, UniProt P11940). The experiment in a line: PABP poly(A) RNA binding inhibitors, primary screen, biochemical, fluorescence polarization, uHTS (AID 2014).
Test [10] can be described thus: HEp-2 cell cytotoxicity, dose response, cytotoxicity control for RSV inhibitor project, HTS (AID 2410). It counts as functional. Conditions: human respiratory syncytial virus.
Test [11] concerns H9c2. The experiment in a line: cells. Conditions: Rattus norvegicus, H9c2, Myocardium. It counts as functional, cell-based.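 Note: confirmatory concentration-response retest of ultra-high-throughput screening hits for modulation of myocardial damage; cell death induced by hydrogen peroxide oxidative stress; compound pretreatment for 60 min then peroxide exposure for 2 h; potency is for protecting the cells against peroxide damage rather than for killing them.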
Test [12] can be described thus: cells.
A short description of test [13]: cells. This is another data set of the same source.
The nature of test [14]: cytotoxicity toward NIH3T3 fibroblasts, dose response, counter-screen, cell-based, ATP luminescence, mouse fibroblasts (AID 2010).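 Note: cells exposed to compound for about 90 hours before reading.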 Format: functional.
The nature of test [15]: inhibitors of intracellular T. cruzi replication, confirmation, NIH3T3 host cells, beta-gal luminescence (AID 2044).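 Note: intracellular parasites grown in NIH/3T3 mouse fibroblasts as host cells; luminescent beta-galactosidase reporter signal from transgenic T. cruzi replicating inside host cells; inhibitors lower the luminescence signal.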 It counts as functional, cell-based.
Test [16] is described as follows: inhibitors of SNCA 5'UTR-driven translation, confirmation, luminescence, H4 neuroglioblastoma cells, dose confirmation (AID 2454).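 Note: H4 neuroglioblastoma cells carrying an alpha-synuclein 5'UTR luciferase reporter; potency for inhibition of the luciferase signal.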 It counts as functional, cell-based.
Test [17] is described as follows: cells. It counts as functional, cell-based.
Test [18] is described as follows: inhibitors of SNCA 5'UTR-driven reporter translation, confirmation, H4 neuroglioma cells, luminescence (AID 1988). It counts as functional, cell-based.
The nature of test [19]: luciferase reporter signal reduction – luminescence, H4-C neuroglioblastoma cells, dose response (AID 2458).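 Note: H4 neuroglioblastoma cells stably carrying a luciferase reporter gene fusion.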 Format: functional, cell-based.
Test [20] is described as follows: inhibitors of firefly luciferase expression or activity, dose response, H4 neuroglioma cells, luminescence (AID 1990). It counts as functional, cell-based.
Test [21] is described as follows: Luminescence-based dose response cell-based high throughput screening assay for cytotoxic compounds using the IEC-6 intestinal epithelial cell line. [Related pubchem assays: 1858 (Summary AID.), 1825 (Counterscreen.), 1907 (Confirmation screen.)]. It counts as functional.
The nature of test [22]: cytotoxicity in HEK-293T cells, dose response, cytotoxicity control for TCR NF-kB inhibitor project, luminescence, T-cell screen hits (AID 489026).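 Note: cells exposed to compound about 14 hours before the viability readout.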 It counts as functional, cell-based.
Test [23] concerns the target Trypsin (Sus scrofa, UniProt P00761). The experiment in a line: porcine trypsin inhibitors, dose response, selectivity assay for Rce1 protease inhibitor project, biochemical, quenched peptide fluorescence, cherry-pick (AID 488789).
Test [24] has as its target T2, Eukaryotic translation initiation factor 2-alpha kinase 3 (Homo sapiens, UniProt Q9NZJ5).
T2 sequence (Q9NZJ5 whole entry): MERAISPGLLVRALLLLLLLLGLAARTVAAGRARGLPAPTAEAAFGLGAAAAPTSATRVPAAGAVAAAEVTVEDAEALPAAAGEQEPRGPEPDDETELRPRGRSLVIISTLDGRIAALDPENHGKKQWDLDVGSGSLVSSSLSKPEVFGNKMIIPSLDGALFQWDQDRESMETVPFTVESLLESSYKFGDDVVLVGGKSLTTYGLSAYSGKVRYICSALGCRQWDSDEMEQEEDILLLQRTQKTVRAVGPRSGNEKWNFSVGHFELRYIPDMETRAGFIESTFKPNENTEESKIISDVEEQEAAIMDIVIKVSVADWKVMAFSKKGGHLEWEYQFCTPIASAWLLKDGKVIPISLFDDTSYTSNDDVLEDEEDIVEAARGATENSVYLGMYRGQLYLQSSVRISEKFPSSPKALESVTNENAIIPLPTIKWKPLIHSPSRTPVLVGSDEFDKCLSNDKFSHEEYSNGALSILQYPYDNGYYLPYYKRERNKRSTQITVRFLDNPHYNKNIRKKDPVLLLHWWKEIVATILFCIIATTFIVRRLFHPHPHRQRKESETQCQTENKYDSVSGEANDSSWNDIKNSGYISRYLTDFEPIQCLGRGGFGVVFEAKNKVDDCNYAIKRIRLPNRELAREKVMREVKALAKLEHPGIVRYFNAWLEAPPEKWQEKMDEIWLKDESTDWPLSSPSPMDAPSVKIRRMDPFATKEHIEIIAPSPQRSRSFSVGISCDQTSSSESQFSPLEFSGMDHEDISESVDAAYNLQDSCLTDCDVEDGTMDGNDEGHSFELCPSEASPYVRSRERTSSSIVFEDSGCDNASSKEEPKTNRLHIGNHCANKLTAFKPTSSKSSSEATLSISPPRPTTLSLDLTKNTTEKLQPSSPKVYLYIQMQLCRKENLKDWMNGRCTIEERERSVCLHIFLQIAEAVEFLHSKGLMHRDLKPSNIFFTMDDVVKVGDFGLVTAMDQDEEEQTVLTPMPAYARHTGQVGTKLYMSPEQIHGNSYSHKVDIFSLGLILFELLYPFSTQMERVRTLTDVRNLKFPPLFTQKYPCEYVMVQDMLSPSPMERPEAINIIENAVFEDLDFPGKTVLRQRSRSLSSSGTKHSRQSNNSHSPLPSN
The experiment in a line: Counterscreen assay for PERK inhibitors: Dose response cell-based high throughput screening assay to measure inhibition of PERK at 6 hours. [Related pubchem assays: 1522, 1416 ]. It counts as functional.

Test [25] concerns the target T2, Eukaryotic translation initiation factor 2-alpha kinase 3. The experiment in a line: Dose response cell-based high-throughput screening assay to measure PERK inhibition. [Related pubchem assays: 1416 ]. Format: functional.
The nature of test [26]: Luminescence Cell-Based Dose Response HTS to Identify Inhibitors of 5'UTR Stem-Loop Driven Prion Protein mRNA Translation in H4 Neuroglioblastoma Cells. [Related pubchem assays: 1827 (Project Summary), 1813 (Primary HTS)]. Format: functional.
A short description of test [27]: cytotoxicity in HEK-293T cells, dose response, cytotoxicity control for BCR NF-kB inhibitor project, luminescence, B-cell screen hits (AID 489021).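 Note: HEK-293T cells carrying an NF-kB luciferase reporter; cells exposed to compound for about 14 hours before viability readout.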 Format: functional, cell-based.

Chain of Beta-galactosidase (Q8VNN2 whole entry): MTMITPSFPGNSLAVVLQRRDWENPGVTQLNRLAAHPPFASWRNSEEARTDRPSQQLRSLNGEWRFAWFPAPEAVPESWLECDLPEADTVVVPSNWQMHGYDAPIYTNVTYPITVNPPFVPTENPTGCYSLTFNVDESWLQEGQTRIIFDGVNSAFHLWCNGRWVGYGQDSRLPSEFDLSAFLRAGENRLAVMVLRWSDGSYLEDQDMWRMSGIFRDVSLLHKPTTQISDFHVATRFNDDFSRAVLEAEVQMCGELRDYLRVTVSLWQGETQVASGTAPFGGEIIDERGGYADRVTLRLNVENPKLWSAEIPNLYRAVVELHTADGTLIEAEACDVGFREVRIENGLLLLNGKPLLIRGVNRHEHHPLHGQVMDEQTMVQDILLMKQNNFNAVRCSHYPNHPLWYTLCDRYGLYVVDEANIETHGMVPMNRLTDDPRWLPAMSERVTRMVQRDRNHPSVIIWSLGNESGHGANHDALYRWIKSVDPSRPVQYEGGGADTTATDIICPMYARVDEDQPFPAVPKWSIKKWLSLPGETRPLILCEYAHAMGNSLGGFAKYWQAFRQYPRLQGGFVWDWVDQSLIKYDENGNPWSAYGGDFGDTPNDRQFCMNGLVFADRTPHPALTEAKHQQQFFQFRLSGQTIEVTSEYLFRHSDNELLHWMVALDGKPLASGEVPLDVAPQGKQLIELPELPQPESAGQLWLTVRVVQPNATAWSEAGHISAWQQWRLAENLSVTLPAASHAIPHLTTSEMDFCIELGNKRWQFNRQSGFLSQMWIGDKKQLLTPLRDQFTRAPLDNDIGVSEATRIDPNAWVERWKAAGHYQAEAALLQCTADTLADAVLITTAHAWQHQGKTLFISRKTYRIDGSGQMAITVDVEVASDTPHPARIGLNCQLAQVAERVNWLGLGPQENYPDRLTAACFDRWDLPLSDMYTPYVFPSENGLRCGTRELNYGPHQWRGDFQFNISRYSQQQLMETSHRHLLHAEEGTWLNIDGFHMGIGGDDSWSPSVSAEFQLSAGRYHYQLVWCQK
Chain of Eukaryotic translation initiation factor 4E (P63073 whole entry): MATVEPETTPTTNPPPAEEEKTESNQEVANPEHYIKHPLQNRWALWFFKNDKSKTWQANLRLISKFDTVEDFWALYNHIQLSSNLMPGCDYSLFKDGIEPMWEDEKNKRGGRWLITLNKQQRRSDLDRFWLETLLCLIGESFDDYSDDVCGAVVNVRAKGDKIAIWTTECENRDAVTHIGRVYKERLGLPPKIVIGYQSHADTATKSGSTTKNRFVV
Chain of Trypsin (P00761 whole entry): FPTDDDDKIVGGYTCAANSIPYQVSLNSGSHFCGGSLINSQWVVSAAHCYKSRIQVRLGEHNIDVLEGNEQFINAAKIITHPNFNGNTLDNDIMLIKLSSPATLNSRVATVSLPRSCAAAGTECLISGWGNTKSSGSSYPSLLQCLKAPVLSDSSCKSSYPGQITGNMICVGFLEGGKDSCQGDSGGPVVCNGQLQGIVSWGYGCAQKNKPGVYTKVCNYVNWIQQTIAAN
Chain of Polyadenylate-binding protein 1 (P11940 whole entry): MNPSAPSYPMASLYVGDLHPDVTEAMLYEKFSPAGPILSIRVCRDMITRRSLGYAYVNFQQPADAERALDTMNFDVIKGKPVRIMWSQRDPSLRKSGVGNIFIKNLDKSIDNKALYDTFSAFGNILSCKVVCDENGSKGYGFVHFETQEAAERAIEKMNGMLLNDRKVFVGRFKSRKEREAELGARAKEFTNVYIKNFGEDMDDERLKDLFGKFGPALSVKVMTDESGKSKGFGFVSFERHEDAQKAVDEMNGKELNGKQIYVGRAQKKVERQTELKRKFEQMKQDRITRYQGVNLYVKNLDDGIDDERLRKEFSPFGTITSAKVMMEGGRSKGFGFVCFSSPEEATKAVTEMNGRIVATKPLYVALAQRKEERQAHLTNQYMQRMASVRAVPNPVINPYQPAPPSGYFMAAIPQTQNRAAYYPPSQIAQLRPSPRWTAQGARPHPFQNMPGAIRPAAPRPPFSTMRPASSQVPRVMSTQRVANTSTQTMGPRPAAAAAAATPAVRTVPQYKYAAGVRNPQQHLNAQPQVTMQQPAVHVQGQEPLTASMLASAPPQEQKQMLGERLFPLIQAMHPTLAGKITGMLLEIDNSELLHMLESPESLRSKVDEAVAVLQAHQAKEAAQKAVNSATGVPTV

By IC50 is commonly meant the point on the concentration scale where inhibition reaches its midpoint. On to `O=C(NC1CCCCCCC1)c1ccc2c(c1)OCO2`, for which, in [1], the IC50 was > 64 µM (inactive).

In the case of `COCCn1c(-c2ccccc2)cnc1SCC(=O)Nc1cccc2ccccc12`, in test [2], the IC50 is 27.4 µM (active).

By EC50 is commonly meant the concentration needed to bring the measured effect to its halfway point. Take `CCN(CC(=O)NC(C)(C)C)C(=O)COc1c(Cl)cc(Cl)c2ccc(C)nc12`: in [3], the IC50 was > 66.6 µM (inactive). The 50% effective concentration (EC50) in test [4] is 1.45 µM (active); in test [5], > 50 µM (active); in test [6] it was 6.5 µM (active).

Consider `O=S(=O)([O-])CCC[n+]1ccc(Oc2ccccc2)cc1`, for which the IC50 in [7] is 48.3 µM (active); in test [8] it was 12.9 µM (active); in [9], 4.32 µM (active).

In general, CC50 refers to the concentration at which the toxic effect on the cells reaches its halfway point. As to `COc1ccccc1NC(=O)COc1cccc2c1CCNC2=O`, the CC50 in test [10] was 39.1 µM (active). The figures for the half-maximal inhibitory concentration (IC50) in [11] and in test [12] were 8.7 µM (active) and 28.8 µM (active), respectively.

As for `CN1CCN(CC(C)(C)NS(=O)(=O)c2ccc(Cl)cc2)CC1`, the EC50 was 0.203 µM (active) in [13], > 60 µM (not active) in [14] and < 0.1 µM (active) in test [15].

Take `CCCCCC(=O)N[C@@H](c1ccccc1)[C@@H](O)C(=O)O[C@H]1C[C@@]2(O)[C@@H](OC(=O)c3ccccc3)C3[C@](C)(C(=O)[C@H](OC(C)=O)C(=C1C)C2(C)C)[C@@H](O)C[C@H]1OC[C@@]31OC(C)=O` (some centres undefined): the concentration giving a half-maximal response (EC50) was 0.402 µM (active) in [16]; 0.253 µM (active) in [17]; < 0.1 µM (active) in [18]; 0.229 µM (active) in test [19]; < 0.1 µM (active) in test [20]. Moreover, the IC50 in test [21] was 0.0618 µM (active); in test [22] it was > 80 µM (inactive).

As to `O=C1c2ccccc2C(=O)N1Cc1nc2ccccc2c(=O)n1-c1ccccn1`, in test [1], the IC50 is > 64 µM (inactive).

For the molecule `CCC(C)[C@H](NC(=O)OC(C)(C)C)C(=O)N/N=C/c1ccc2cc(OC)ccc2n1` (some centres undefined), in test [10], the CC50 is 36.2 µM (active). Moreover, in [12], the IC50 is 39 µM (active).

For orientation: AC50 means the midpoint of the concentration-response curve, whichever way the signal moves. Regarding `COc1nc(-c2ccccc2)ccc1-c1noc(-c2ccccc2F)n1`, the AC50 in [23] was > 100 µM (inactive).

For the molecule `Cc1ccc2c(c1C)NC(C)CC2C` (centres undefined), the 50% effective concentration (EC50) in test [24] and in test [25] was > 55.7 µM (not active) each time.

With `CCCc1nc2ccccc2c(=O)n1N`, the EC50 in test [24] and in test [25] was > 55.7 µM (not active) throughout.

As for `CCOc1ccc(-c2cc(CCCC(=O)NCc3ccco3)no2)cc1`, the concentration for a half-maximal effect (EC50) was 17.4 µM (active) in test [26]; 1.87 µM (active) in test [16]; 2.78 µM (active) in test [17]; < 0.1 µM (active) in test [18]; 1.22 µM (active) in test [19]; 14.5 µM (active) in test [20]. The IC50 in [27] was > 80 µM (inactive).

`CC(C)Cc1nnc(NC(=O)c2cc([N+](=O)[O-])ccc2N2CCOCC2)s1`: the IC50 in test [3] was > 66.6 µM (inactive).

With `CCc1cc(C(=O)O)c(NC(=O)c2cc(OC)c(OC)c(OC)c2)s1`, the IC50 in test [2] is 29.2 µM (active).
